Values after ≈ are worked out from the molar mass of the structure shown.
Columns and labels:
Assay type in all cases: functional
[1] = tested on: Pseudomonas aeruginosa; experiment: Antibacterial activity against Pseudomonas aeruginosa ATCC 27853 by CLSI-based broth dilution method
[2] = tested on: Staphylococcus aureus; experiment: Antibacterial activity against methicillin-resistant Staphylococcus aureus ATCC 25923 by CLSI-based broth dilution method
[3] = tested on: Escherichia coli; experiment: Antibacterial activity against ESBL-producing Escherichia coli ATCC 25925 by CLSI-based broth dilution method
[4] = tested on: Enterococcus faecium; experiment: Antibacterial activity against vancomycin-resistant Enterococcus faecium by CLSI-based broth dilution method; details: time 24 hrs
[5] = tested on: Staphylococcus aureus; experiment: Antibacterial activity against methicillin-sensitive Staphylococcus aureus by CLSI-based broth dilution method
[6] = tested on: Klebsiella pneumoniae; experiment: Antibacterial activity against Klebsiella pneumoniae ATCC 27736 by CLSI-based broth dilution method
[7] = tested on: Staphylococcus aureus; experiment: Antibacterial activity against Staphylococcus aureus MTCC 96 incubated for 24 hrs by macrodilution tube method
[8] = tested on: Bacillus cereus; experiment: Antibacterial activity against Bacillus cereus MTCC 430 incubated for 24 hrs by macrodilution tube method
[9] = tested on: Klebsiella pneumoniae; experiment: Antibacterial activity against Klebsiella pneumoniae incubated for 16 to 18 hrs by serial plate dilution method; details: time hrs 16-18
[10] = tested on: Staphylococcus aureus; experiment: Antibacterial activity against methicillin-resistant Staphylococcus aureus ATCC 25923 incubated for 16 to 18 hrs by serial plate dilution method; details: time hrs 16-18
[11] = tested on: Talaromyces marneffei; experiment: Antifungal activity against Penicillium marneffei incubated for 3 to 4 days by serial plate dilution method; details: time day 3-4
[12] = tested on: Trichophyton mentagrophytes; experiment: Antifungal activity against Trichophyton mentagrophytes incubated for 3 to 4 days by serial plate dilution method; details: time day 3-4
[13] = tested on: Escherichia coli; experiment: Antibacterial activity against Escherichia coli ATCC 25922 incubated for 16 to 18 hrs by serial plate dilution method; details: time hrs 16-18
[14] = tested on: Aspergillus fumigatus; experiment: Antifungal activity against Aspergillus fumigatus NCIM 902 incubated for 3 to 4 days by serial plate dilution method; details: time day 3-4
[15] = tested on: Pseudomonas aeruginosa; experiment: Antibacterial activity against Pseudomonas aeruginosa ATCC 27853 incubated for 16 to 18 hrs by serial plate dilution method; details: time hrs 16-18
[16] = tested on: Aspergillus flavus; experiment: Antifungal activity against Aspergillus flavus NCIM 524 incubated for 3 to 4 days by serial plate dilution method; details: time day 3-4

Row | MIC [7] [µg/mL] | MIC [8] [µg/mL] | Compound | MIC [1] [µg/mL] | MIC [2] [µg/mL] | MIC [3] [µg/mL] | MIC [4] [µg/mL] | MIC [5] [µg/mL] | MIC [6] [µg/mL] | other results
1 |  |  | COc1ccc(-n2cc(COc3ccc(-c4nc5cc(C(=N)NC(C)C)ccc5[nH]4)cc3)nn2)cc1 | 8 (≈ 16.6 µM) | 8 (≈ 16.6 µM) | 8 (≈ 16.6 µM) | 8 (≈ 16.6 µM) | 8 (≈ 16.6 µM) | 8 (≈ 16.6 µM) | 
2 |  |  | COc1ccc(-n2cc(COc3ccc(-c4nc5cc(C6=NCCN6)ccc5[nH]4)cc3)nn2)cc1 | 8 (≈ 17.2 µM) | 8 (≈ 17.2 µM) | 8 (≈ 17.2 µM) | 8 (≈ 17.2 µM) | 8 (≈ 17.2 µM) | 8 (≈ 17.2 µM) | 
3 |  |  | CC(C)NC(=N)c1ccc2[nH]c(-c3ccc(OCc4cn(-c5ccc(Cl)cc5)nn4)cc3)nc2c1 | 8 (≈ 16.5 µM) | 8 (≈ 16.5 µM) | 8 (≈ 16.5 µM) | 8 (≈ 16.5 µM) | 8 (≈ 16.5 µM) | 8 (≈ 16.5 µM) | 
4 | 16 (≈ 26.1 µM) | 16 (≈ 26.1 µM) | CC1(C)CC(=O)C2=C(C1)Oc1cc3ccc(OCc4cn(-c5ccnc6cc(Cl)ccc56)nn4)cc3cc1C2c1ccccc1 (stereo not given) |  |  |  |  |  |  | 
5 | 16 (≈ 24.1 µM) | 16 (≈ 24.1 µM) | O=C1CCCC2=C1C(c1ccc(Br)cc1)c1cc3cc(OCc4cn(-c5ccnc6cc(Cl)ccc56)nn4)ccc3cc1O2 (stereo not given) |  |  |  |  |  |  | 
6 |  |  | Clc1ccc(-n2cc(COc3ccc(-c4nc5cc(C6=NCCN6)ccc5[nH]4)cc3)nn2)cc1 | 8 (≈ 17 µM) | 8 (≈ 17 µM) | 8 (≈ 17 µM) | 8 (≈ 17 µM) | 8 (≈ 17 µM) | 8 (≈ 17 µM) | 
7 |  |  | N=C(N)c1ccc2[nH]c(-c3ccc(OCc4cn(-c5ccc(Cl)cc5)nn4)cc3)nc2c1 | 16 (≈ 36 µM) | 16 (≈ 36 µM) | 16 (≈ 36 µM) | 16 (≈ 36 µM) | 16 (≈ 36 µM) | 16 (≈ 36 µM) | 
8 | 16 (≈ 24.3 µM) | 16 (≈ 24.3 µM) | CC1(C)CC(=O)C2=C(C1)Oc1cc3ccc(OCc4cn(-c5ccnc6cc(Cl)ccc56)nn4)cc3cc1C2c1ccc([N+](=O)[O-])cc1 (stereo not given) |  |  |  |  |  |  | 
9 | 16 (≈ 25.2 µM) | 16 (≈ 25.2 µM) | O=C1CCCC2=C1C(c1cccc3ccccc13)c1cc3cc(OCc4cn(-c5ccnc6cc(Cl)ccc56)nn4)ccc3cc1O2 (stereo not given) |  |  |  |  |  |  | 
10 | 16 (≈ 27.3 µM) | 16 (≈ 27.3 µM) | O=C1CCCC2=C1C(c1ccccc1)c1cc3cc(OCc4cn(-c5ccnc6cc(Cl)ccc56)nn4)ccc3cc1O2 (stereo not given) |  |  |  |  |  |  | 
11 |  |  | N=C(N)c1ccc2[nH]c(-c3ccc(OCc4cn(-c5ccccc5)nn4)cc3)nc2c1 | 16 (≈ 39.1 µM) | 16 (≈ 39.1 µM) | 16 (≈ 39.1 µM) | 16 (≈ 39.1 µM) | 16 (≈ 39.1 µM) | 16 (≈ 39.1 µM) | 
12 |  |  | c1ccc(-n2cc(COc3ccc(-c4nc5cc(C6=NCCN6)ccc5[nH]4)cc3)nn2)cc1 | 8 (≈ 18.4 µM) | 8 (≈ 18.4 µM) | 8 (≈ 18.4 µM) | 8 (≈ 18.4 µM) | 8 (≈ 18.4 µM) | 8 (≈ 18.4 µM) | 
13 |  |  | Cc1c(C(=O)N/N=C/c2ccccc2)nnn1-c1cc(C(F)(F)F)nc2c(C(F)(F)F)cccc12 |  |  |  |  |  |  | MIC [9]: 6.25 µg/mL (≈ 12.7 µM); MIC [10]: 6.25 µg/mL (≈ 12.7 µM); MIC [11]: 6.25 µg/mL (≈ 12.7 µM); MIC [12]: 6.25 µg/mL (≈ 12.7 µM); MIC [13]: 6.25 µg/mL (≈ 12.7 µM); MIC [14]: 6.25 µg/mL (≈ 12.7 µM); MIC [15]: 6.25 µg/mL (≈ 12.7 µM); MIC [16]: 6.25 µg/mL (≈ 12.7 µM)
14 | 16 (≈ 26.7 µM) | 16 (≈ 26.7 µM) | Cc1ccc(C2C3=C(CCCC3=O)Oc3cc4ccc(OCc5cn(-c6ccnc7cc(Cl)ccc67)nn5)cc4cc32)cc1 (stereo not given) |  |  |  |  |  |  | 
15 | 16 (≈ 23.1 µM) | 16 (≈ 23.1 µM) | CC1(C)CC(=O)C2=C(C1)Oc1cc3ccc(OCc4cn(-c5ccnc6cc(Cl)ccc56)nn4)cc3cc1C2c1ccc(Br)cc1 (stereo not given) |  |  |  |  |  |  | 
16 |  |  | COc1ccc(/C=N/NC(=O)c2nnn(-c3cc(C(F)(F)F)nc4c(C(F)(F)F)cccc34)c2C)c(OC)c1OC |  |  |  |  |  |  | MIC [9]: 6.25 µg/mL (≈ 10.7 µM); MIC [10]: 6.25 µg/mL (≈ 10.7 µM); MIC [11]: 6.25 µg/mL (≈ 10.7 µM); MIC [12]: 6.25 µg/mL (≈ 10.7 µM); MIC [13]: 6.25 µg/mL (≈ 10.7 µM); MIC [14]: 6.25 µg/mL (≈ 10.7 µM); MIC [15]: 6.25 µg/mL (≈ 10.7 µM); MIC [16]: 6.25 µg/mL (≈ 10.7 µM)
17 |  |  | CC(C)NC(=N)c1ccc2[nH]c(-c3ccc(OCc4cn(Cc5ccccc5)nn4)cc3)nc2c1 | 8 (≈ 17.2 µM) | 8 (≈ 17.2 µM) | 8 (≈ 17.2 µM) | 8 (≈ 17.2 µM) | 8 (≈ 17.2 µM) | 8 (≈ 17.2 µM) | 
18 | 16 (≈ 25.5 µM) | 16 (≈ 25.5 µM) | Cc1ccc(C2C3=C(CC(C)(C)CC3=O)Oc3cc4ccc(OCc5cn(-c6ccnc7cc(Cl)ccc67)nn5)cc4cc32)cc1 (stereo not given) |  |  |  |  |  |  | 

From ChEMBL document CHEMBL4699440, “Comprehensive review on the anti-bacterial activity of 1,2,3-triazole hybrids” (Eur J Med Chem, 2019)
